From paper PMC12860560, “Chromosome-level genome assembly of Cornus officinalis reveals the evolution of loganin biosynthesis” (Horticulture Research, 2025)

Molecular target: T1, CrLAMT (Catharanthus roseus, UniProt B2KPR3)
T1 construct: gene LAMT; pBI121 vector, expressed in Nicotiana benthamiana
T1 sequence (B2KPR3 1-371): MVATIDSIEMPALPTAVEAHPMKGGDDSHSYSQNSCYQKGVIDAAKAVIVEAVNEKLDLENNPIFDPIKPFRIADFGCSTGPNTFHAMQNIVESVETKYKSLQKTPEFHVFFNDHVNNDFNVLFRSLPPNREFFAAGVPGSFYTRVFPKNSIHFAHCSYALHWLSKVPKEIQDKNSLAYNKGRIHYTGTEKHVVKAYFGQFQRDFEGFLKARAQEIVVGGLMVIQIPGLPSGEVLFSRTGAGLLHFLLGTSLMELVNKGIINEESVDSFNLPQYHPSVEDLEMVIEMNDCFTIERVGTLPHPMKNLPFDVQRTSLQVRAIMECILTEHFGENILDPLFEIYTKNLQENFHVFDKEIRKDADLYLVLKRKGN
Test: HPLC of product loganin
Assay type: cell-based
Conditions: expressed in N. benthamiana; preparation of the HPLC assay not told

Question: How did the “HPLC of product loganin” value turn out when C[C@@H]1[C@H]2[C@H](O[C@@H]3O[C@H](CO)[C@@H](O)[C@H](O)[C@H]3O)OC=C(C(=O)O)[C@H]2C[C@@H]1O [loganic acid] was run?
Answer: production of loganin by CaLAMT, CrLAMT, and CoLAMT using loganic acid as the substrate
